What was measured:
Assay in all cases: IA-DTB cysteine engagement
Format in all cases: binding
Conditions in all cases: 22Rv1 cells, 20 μM probe, 1 h, relative to DMSO
HSDL1_C265 = biological target: T1, HSDL1_C265 (Homo sapiens, UniProt Q3SXM5)
T1 construct: endogenous in cells; host or cells: 22Rv1
T1 sequence (Q3SXM5 1-330): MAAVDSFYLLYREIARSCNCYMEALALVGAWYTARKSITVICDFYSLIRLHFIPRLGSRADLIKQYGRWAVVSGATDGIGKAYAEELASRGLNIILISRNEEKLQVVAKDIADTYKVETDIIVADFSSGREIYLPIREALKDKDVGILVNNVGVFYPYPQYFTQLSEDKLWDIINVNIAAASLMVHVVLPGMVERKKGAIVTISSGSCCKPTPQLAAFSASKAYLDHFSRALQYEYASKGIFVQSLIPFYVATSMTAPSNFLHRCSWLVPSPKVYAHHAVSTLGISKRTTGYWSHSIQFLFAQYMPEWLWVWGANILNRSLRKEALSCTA
Method in brief: (§1)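 In-situ probe treatment of cells; lysate 2 mg/mL, IA-DTB 1 h RT; MeOH/CHCl3 precipitation, DTT/iodoacetamide, trypsin; streptavidin enrichment; TMT labeling, high-pH fractionation. Ratio = TMT reporter intensity / mean DMSO channels, median-normalized.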

TBC1D13_C282 = biological target: T2, TBC1D13_C282 (Homo sapiens, UniProt Q9NVG8)
T2 construct: endogenous in cells; host or cells: 22Rv1
T2 sequence (Q9NVG8 1-400): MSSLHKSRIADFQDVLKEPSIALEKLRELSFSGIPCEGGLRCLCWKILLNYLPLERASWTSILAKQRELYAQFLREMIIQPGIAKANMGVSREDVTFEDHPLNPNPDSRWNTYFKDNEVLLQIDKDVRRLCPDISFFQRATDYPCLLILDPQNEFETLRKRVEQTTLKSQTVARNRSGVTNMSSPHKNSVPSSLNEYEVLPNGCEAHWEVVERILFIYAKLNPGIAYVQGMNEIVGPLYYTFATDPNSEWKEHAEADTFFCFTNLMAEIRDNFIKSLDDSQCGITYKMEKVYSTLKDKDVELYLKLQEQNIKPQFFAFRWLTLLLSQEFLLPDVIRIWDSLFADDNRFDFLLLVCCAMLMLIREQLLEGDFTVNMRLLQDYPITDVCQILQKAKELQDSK
Method in brief: as §1

GPAT3_C306 = biological target: T3, GPAT3_C306 (Homo sapiens, UniProt Q53EU6)
T3 construct: endogenous in cells; host or cells: 22Rv1
T3 sequence (Q53EU6 1-434): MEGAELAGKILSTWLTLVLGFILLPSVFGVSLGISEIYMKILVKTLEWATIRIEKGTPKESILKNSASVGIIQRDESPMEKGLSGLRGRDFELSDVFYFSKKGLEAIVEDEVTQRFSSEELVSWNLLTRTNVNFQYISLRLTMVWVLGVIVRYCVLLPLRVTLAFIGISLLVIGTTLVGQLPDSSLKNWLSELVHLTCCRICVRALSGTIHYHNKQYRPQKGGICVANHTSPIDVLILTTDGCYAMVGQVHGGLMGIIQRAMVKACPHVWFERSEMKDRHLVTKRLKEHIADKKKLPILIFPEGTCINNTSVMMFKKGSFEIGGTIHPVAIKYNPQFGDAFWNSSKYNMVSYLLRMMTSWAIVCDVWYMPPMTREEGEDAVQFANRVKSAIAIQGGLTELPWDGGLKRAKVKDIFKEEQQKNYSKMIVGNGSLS
Method in brief: as §1

SMILES | % engagement HSDL1_C265 (HSDL1_C265) [%] | % engagement TBC1D13_C282 (TBC1D13_C282) [%] | % engagement GPAT3_C306 (GPAT3_C306) [%]
C=CC(=O)N1C[C@H](c2ccc(Br)cc2)[C@H]1C(=O)Nc1cccc2cccnc12 [MY-3A, (2S,3S)-1-acryloyl-3-(4-bromophenyl)-N-(quinolin-8-yl)azetidine-2-carboxamide] | 64.25 | −16 | 57
C=CC(=O)N1C[C@@H](c2ccc(Br)cc2)[C@H]1C(=O)Nc1cccc2cccnc12 [MY-1A, (2S,3R)-1-acryloyl-3-(4-bromophenyl)-N-(quinolin-8-yl)azetidine-2-carboxamide] | 52 | 75.75 | 75.75
C=CC(=O)N1C[C@H](c2ccc(Br)cc2)[C@@H]1C(=O)Nc1cccc2cccnc12 [MY-1B, (2R,3S)-1-acryloyl-3-(4-bromophenyl)-N-(quinolin-8-yl)azetidine-2-carboxamide] | 54 | 1 | 81.5
C=CC(=O)N1C[C@H](c2ccc(Br)cc2)[C@H]1C(=O)Nc1cccc2cccnc12 [MY-3B, (2S,3S)-1-acryloyl-3-(4-bromophenyl)-N-(quinolin-8-yl)azetidine-2-carboxamide] | 82 | 51.5 | 100
